# Results: patent publication US4705799A, “Aminomethyl oxooxazolidinyl benzenes useful as antibacterial agents” (E. I. Du Pont de Nemours and Company, priority 1985, dated 1987)
# Experiments:
# Staphylococcus aureus [1] = assay: In vivo efficacy of orally administered compounds in mouse intraperitoneal infections; conditions: for ED50: Staphylococcus aureus, po, 168 h, mouse i.p. Staphylococcus aureus infection, oral, dosed at infection and 4 h post-infection, 7 days, read-out: ED50 (50 percent effective dose)
# Escherichia coli [2] = assay: as above; conditions: 168 h; mouse i.p. Escherichia coli infection; oral; dosed at infection and 4 h post-infection; 7 days; read-out: ED50 (50 percent effective dose)
# Staphylococcus aureus [3] = assay: In vivo efficacy of compounds administered subcutaneously in mouse intraperitoneal infections; conditions: sc, 168 h; mouse i.p. Staphylococcus aureus infection; subcutaneous; dosed at infection and 4 h post-infection; 7 days; read-out: ED50 (50 percent effective dose)
# Escherichia coli [4] = assay: as above; conditions: sc, 168 h; mouse i.p. Escherichia coli infection; subcutaneous; dosed at infection and 4 h post-infection; 7 days; read-out: ED50 (50 percent effective dose)
# [5] = system: Staphylococcus epidermidis; assay: In vitro broth dilution minimal inhibitory concentration (standard microdilution method); assay type: cell-based; conditions: 24 h, Mueller-Hinton broth, 24-hour, read-out: Microdilution Broth MIC
# Escherichia coli [6] = assay: as above; assay type: cell-based; conditions: for MIC: Escherichia coli, Mueller-Hinton broth, 24-hour, read-out: Microdilution Broth MIC
# Staphylococcus aureus [7] = assay: In vitro test, same procedures as microdilution MIC; assay type: cell-based; conditions: same procedures as Table 9
# Source text: It is believed that the compound of Example 123 would provide control at higher concentrations or under different conditions.
# [8] = Water solubility (observation); assay type: physicochemical
MIC [5],MIC (Escherichia coli [6]),water solubility [8],Structure (SMILES),ED50 (Staphylococcus aureus [1]),ED50 (Escherichia coli [2]),ED50 (Staphylococcus aureus [3]),ED50 (Escherichia coli [4]),"antibacterial effect in vivo (Staphylococcus aureus [1]; in vivo, see Tables 10 and 11)","control of Escherichia coli in vitro (Escherichia coli [6]; same procedures as Table 9, result in words)",control of Staphylococcus aureus in vitro (Staphylococcus aureus [7])
200 µg/mL,> 200 µg/mL,–,COC(=O)NCC1CN(c2ccc(S(=O)(=O)N=[N+]=[N-])cc2)C(=O)O1 (stereo not drawn) [Example 117],16.1 mg/kg,> 120 mg/kg,7.2 mg/kg,> 120 mg/kg,–,–,–
1.6 µg/mL,> 200 µg/mL,–,"CCc1ccc(N2CC(CNC(C)=O)OC2=O)cc1 (single isomer, unassigned) [Example 133, (l)-N-[3-(4-Ethylphenyl)-2-oxo-5-oxazolidinylmethyl]acetamide]",3 mg/kg,17.9 mg/kg,2.2 mg/kg,15.2 mg/kg,–,–,–
12.5 µg/mL,> 200 µg/mL,–,CCc1ccc(N2CC(CNC(=O)OC)OC2=O)cc1 (stereo not drawn) [Example 83],9.6 mg/kg,> 120 mg/kg,6.6 mg/kg,> 12 mg/kg,–,–,–
12.5 µg/mL,> 200 µg/mL,–,CNS(=O)(=O)c1ccc(N2CC(CNC(C)=O)OC2=O)cc1 (stereo not drawn) [Example 46],15.8 mg/kg,62.5 mg/kg,> 13 mg/kg,91 mg/kg,–,–,–
> 200 µg/mL,> 200 µg/mL,–,"CCCCCCN(CC1CN(c2ccc(S(C)(=O)=O)cc2)C(=O)O1)C(=O)OC (racemic) [Example 123, (dl)-N-hexyl-N-[3-[4-(methylsulfonyl)phenyl]-2-oxooxazolidin-5-ylmethyl]carbamic acid, methyl ester]",27.6 mg/kg,–,46.6 mg/kg,–,found to exhibit an antibacterial effect in vivo,no control,no control
> 200 µg/mL,> 200 µg/mL,–,"CCCCCCN(CC1CN(c2ccc(S(C)(=O)=O)cc2)C(=O)O1)C(C)=O (racemic) [Example 122, (dl)-N-Hexyl-N-[3-[4-(methylsulfonyl)phenyl]-2-oxooxazolidin-5-ylmethyl]acetamide]",48.4 mg/kg,> 120 mg/kg,16.3 mg/kg,> 120 mg/kg,–,–,–
3.1 µg/mL,> 200 µg/mL,–,CCc1ccc(N2CC(CNC(C)=O)OC2=O)cc1 (stereo not drawn) [Example 82],2.7 mg/kg,65.9 mg/kg,2 mg/kg,95.1 mg/kg,–,–,–
100 µg/mL,> 200 µg/mL,–,CC(=O)NCC1CN(c2ccc(Cl)cc2)C(=O)O1 (stereo not drawn) [Example 87],42 mg/kg,> 120 mg/kg,10.5 mg/kg,> 120 mg/kg,–,–,–
1.6 µg/mL,> 200 µg/mL,–,"CSCC(=O)c1ccc(N2CC(CNC(C)=O)OC2=O)cc1 (single isomer, unassigned) [Example 161, (l)-N-[3-[4-(Methylthioacetyl)phenyl]-2-oxo-5-oxazolidinylmethyl]acetamide]",10.4 mg/kg,> 120 mg/kg,5.4 mg/kg,> 120 mg/kg,–,–,–
6.3 µg/mL,50 µg/mL,–,CS(=O)(=O)c1ccc(N2CC(CNC(=O)CN=[N+]=[N-])OC2=O)cc1 (stereo not drawn) [Example 158],11.4 mg/kg,56.5 mg/kg,< 13 mg/kg,25 mg/kg,–,–,–
4 µg/mL,> 128 µg/mL,–,CC(=O)c1ccc(N2CC(CNC(=O)C(Cl)Cl)OC2=O)cc1 (stereo not drawn) [Example 172],10.2 mg/kg,> 120 mg/kg,13.6 mg/kg,> 120 mg/kg,–,–,–
1 µg/mL,> 128 µg/mL,–,CC(=O)NCC1CN(c2ccc(C(C)=O)c(C)c2)C(=O)O1 (stereo not drawn) [Example 142],1.8 mg/kg,52.1 mg/kg,1.8 mg/kg,52.1 mg/kg,–,–,–
25 µg/mL,100 µg/mL,–,"CC(=O)NCC1CN(c2ccc(S(N)(=O)=O)cc2)C(=O)O1 (single isomer, unassigned) [Example 113, (l)-N-[3-[4-(Aminosulfonyl)phenyl]-2-oxooxazolidin-5-ylmethyl]acetamide]",17.2 mg/kg,29.7 mg/kg,9.6 mg/kg,11.7 mg/kg,–,–,–
3.1 µg/mL,50 µg/mL,–,"CC(=O)NCC1CN(c2ccc(C(C)O)cc2)C(=O)O1 (single isomer, unassigned) [Example 130, (l)-N-[3-[4-(1-Hydroxyethyl)phenyl]-2-oxo-5-oxazolidinylmethyl]acetamide]",2.1 mg/kg,17.4 mg/kg,< 1.3 mg/kg,26.3 mg/kg,–,–,–
12.5 µg/mL,> 200 µg/mL,–,CC(=O)c1ccc(N2CC(CNC(=O)CCCl)OC2=O)cc1 (stereo not drawn) [Example 95],10.9 mg/kg,> 120 mg/kg,7.7 mg/kg,60.7 mg/kg,–,–,–
1 µg/mL,> 128 µg/mL,–,"CCCC(=O)c1ccc(N2CC(CNC(C)=O)OC2=O)cc1 (stereo not drawn) [Example 138, l-N-[2-oxo-3-[4-(1-oxobutyl)phenyl]-5-oxazolidinylmethyl]acetamide]",9.6 mg/kg,> 120 mg/kg,5.1 mg/kg,> 120 mg/kg,–,–,–
> 50 µg/mL,> 50 µg/mL,–,"CC(=O)NCC1CN(c2ccc(S)cc2)C(=O)O1 (single isomer, unassigned) [Example 153, (l)-N-[3-(4-Mercaptophenyl)-2-oxooxazolidin-5-ylmethyl]acetamide]",5.7 mg/kg,17 mg/kg,< 13 mg/kg,57.2 mg/kg,–,–,–
2.4 µg/mL,200 µg/mL,–,"CC(=O)NCC1CN(c2ccc([N+](=O)[O-])cc2)C(=O)O1 (single isomer, unassigned) [Example 146, (l)-N-[3-(4-Nitrophenyl)-2-oxooxazolidin-5-ylmethyl]acetamide]",2 mg/kg,29.8 mg/kg,> 13 mg/kg,40 mg/kg,–,–,–
3.2 µg/mL,2.5 µg/mL,–,CS(=O)(=O)c1ccc(N2CC(CNC(=O)CCl)OC2=O)cc1 (stereo not drawn) [Example 67],42.5 mg/kg,> 120 mg/kg,18.6 mg/kg,99 mg/kg,–,–,–
6.2 µg/mL,> 200 µg/mL,–,CCCCc1ccc(N2CC(CNC(C)=O)OC2=O)cc1 (stereo not drawn) [Example 81],47.9 mg/kg,> 120 mg/kg,27.9 mg/kg,> 120 mg/kg,–,–,–
200 µg/mL,> 200 µg/mL,quite water soluble,"CC(=O)NCC1CN(c2ccc(NS(C)(=O)=O)cc2)C(=O)O1 (single isomer, unassigned) [Example 151, (l)-N-[3-[4-(Methylsulfonylamino)phenyl]-2-oxooxazolidin-5-ylmethyl]acetamide]",62.9 mg/kg,–,9.7 mg/kg,–,–,–,–
> 200 µg/mL,> 200 µg/mL,–,"CC(=O)N(CC1CN(c2ccc(S(C)(=O)=O)cc2)C(=O)O1)C1CCCCC1 (racemic) [Example 124, (dl)-N-cyclohexyl-N-[3-[4-(methylsulfonyl)phenyl]-2-oxooxazolidin-5-ylmethyl]acetamide]",48.4 mg/kg,> 120 mg/kg,16.3 mg/kg,> 120 mg/kg,–,–,–
> 200 µg/mL,> 200 µg/mL,–,CC(=O)NCC1CN(c2ccc(F)cc2)C(=O)O1 (stereo not drawn) [Example 88],23.6 mg/kg,> 120 mg/kg,21.9 mg/kg,> 120 mg/kg,–,–,–
6.2 µg/mL,> 200 µg/mL,–,"CC(=O)NCC1CN(c2ccc(C(C)=NNC(C)=O)cc2)C(=O)O1 (single isomer, unassigned) [Example 132, (l)-N-[3-[4-[1-(Acetylhydrazono)ethyl]phenyl]-2-oxo-5-oxazolidinylmethyl]acetamide]",< 4.4 mg/kg,24.7 mg/kg,6.9 mg/kg,> 120 mg/kg,–,–,–
6.25 µg/mL,> 200 µg/mL,–,CC(=O)NCC1CN(c2ccc(Br)cc2)C(=O)O1 (stereo not drawn) [Example 86],6.9 mg/kg,> 40 mg/kg,4.7 mg/kg,> 40 mg/kg,–,–,–
10 µg/mL,> 200 µg/mL,–,"CC(=O)NCC1CN(c2ccc([S+](C)[O-])cc2)C(=O)O1 (single isomer, unassigned) [Example 120, (l)-N-[3-[4-(Methylsulfinyl)phenyl]-2-oxooxazolidin-5-ylmethyl]acetamide]",3.3 mg/kg,11.1 mg/kg,2.8 mg/kg,6.1 mg/kg,–,–,–
9.4 µg/mL,> 200 µg/mL,–,CC(=O)NCC1CN(c2ccc(C(C)C)cc2)C(=O)O1 (stereo not drawn) [Example 38],9.1 mg/kg,> 120 mg/kg,4.8 mg/kg,60.4 mg/kg,–,–,–
25 µg/mL,> 200 µg/mL,–,CC(=O)NCC1CN(c2ccc(C(C)=NNC(C)=O)cc2)C(=O)O1 (stereo not drawn) [Example 36],4.7 mg/kg,47.2 mg/kg,7.4 mg/kg,> 120 mg/kg,–,–,–
0.4 µg/mL,25 µg/mL,–,"CCC(=O)c1ccc(N2CC(CNC(C)=O)OC2=O)cc1 (stereo not drawn) [Example 134, l-N-[2-oxo-3-[4-(1-oxopropyl)phenyl]-5-oxazolidinylmethyl]acetamide]",< 4.4 mg/kg,46.9 mg/kg,< 4.4 mg/kg,42.1 mg/kg,–,–,–
